Data taken from patent US20260242371A1, “LIPID PRODRUGS OF BROM[…] USES THEREOF” (priority 2023, published 2026).

Experiments:
[1] = biological target: 5-HT2B receptor (Homo sapiens, UniProt P41595); conditions: cited from earlier work
[2] = biological target: 5-HT2A receptor (Homo sapiens, UniProt P28223); conditions: Lewis, V. et al, Cell Reports 2023; cited from earlier work
[3] = patients given up to 22 mg; Schneckloth, R., et al., Circulation 1957; cited from earlier work
[4] = Pharmacokinetics of 2-bromo-LSD prodrugs in rats; conditions: male, Sprague-Dawley, rat, plasma, iv
[5] = Metabolism identification (MetID) assay in rat hepatocytes; conditions: 10 μM bromolysergide, 3 hours, 37 degrees Celsius
[6] = Metabolism identification (MetID) assay in human hepatocytes; conditions: 10 μM bromolysergide, 3 hours, 37 degrees Celsius
[7] = Pharmacokinetics of 2-bromo-LSD prodrugs in non-human primates; conditions: cynomolgus monkey, plasma; for AUC(0-t) / Cmax: iv
[8] = Metabolism identification (MetID) assay in human liver microsomes S9 fraction; conditions: 10 μM bromolysergide, human liver microsomes S9 1 mg/mL, NADPH, one hour, 37° C.

Chain of 5-HT2B receptor (P41595 whole entry): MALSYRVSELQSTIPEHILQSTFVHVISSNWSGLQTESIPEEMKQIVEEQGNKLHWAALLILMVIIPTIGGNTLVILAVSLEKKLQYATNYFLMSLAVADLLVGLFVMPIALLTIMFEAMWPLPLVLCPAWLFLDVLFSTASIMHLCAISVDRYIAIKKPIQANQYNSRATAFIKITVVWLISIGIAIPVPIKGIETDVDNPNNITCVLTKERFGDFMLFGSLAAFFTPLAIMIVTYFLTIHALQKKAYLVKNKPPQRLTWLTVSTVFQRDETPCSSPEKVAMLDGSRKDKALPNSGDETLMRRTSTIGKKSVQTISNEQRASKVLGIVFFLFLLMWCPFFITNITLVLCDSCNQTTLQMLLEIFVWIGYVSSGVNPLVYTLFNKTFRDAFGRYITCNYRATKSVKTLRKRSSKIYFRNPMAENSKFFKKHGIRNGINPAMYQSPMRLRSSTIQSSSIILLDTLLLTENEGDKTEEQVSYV
Chain of 5-HT2A receptor (P28223 whole entry): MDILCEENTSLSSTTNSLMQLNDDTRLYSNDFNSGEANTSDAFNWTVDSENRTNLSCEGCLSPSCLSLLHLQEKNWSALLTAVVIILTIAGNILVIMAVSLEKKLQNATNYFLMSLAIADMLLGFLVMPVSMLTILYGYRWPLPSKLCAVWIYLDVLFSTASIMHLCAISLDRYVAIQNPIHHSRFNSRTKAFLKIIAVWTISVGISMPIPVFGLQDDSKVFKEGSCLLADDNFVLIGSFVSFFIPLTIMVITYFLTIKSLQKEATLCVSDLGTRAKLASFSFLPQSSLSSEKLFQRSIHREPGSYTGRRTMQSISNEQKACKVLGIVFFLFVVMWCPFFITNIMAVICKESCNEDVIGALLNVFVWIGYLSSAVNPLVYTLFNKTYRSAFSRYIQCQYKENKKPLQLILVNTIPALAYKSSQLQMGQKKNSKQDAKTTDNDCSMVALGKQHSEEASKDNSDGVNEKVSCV

| Compound | % of Total Rat [5] [%] | % of Total Human [6] [%] | % of Total Human_LM [8] [%] | also measured |
| --- | --- | --- | --- | --- |
| CCN(CC)C(=O)[C@@H]1C=C2c3cccc4[nH]c(Br)c(c34)C[C@H]2N(C)C1 [Compound 2BL, 2-bromo-lysergic acid diethylamide] | 18.5 | 41.3 | 30.0 | activity at 5-HT2B receptor [1]: antagonist; activity at 5-HT2A receptor [2]: partial agonism; hallucinations in patients [3]: no hallucinations reported; AUC(0-t) [4]: 0.93 ± 0.1 µM·h; Cmax [4]: 890 ± 60 nM; Tmax ([7]; oral): ~2 h; AUC(0-t) ([7]; female): 340 ± 38 ng·h/mL; Cmax ([7]; female): 340 ± 58 ng/mL; AUC(0-t) ([7]; male): 300 ± 40 ng·h/mL; Cmax ([7]; male): 280 ± 8.8 ng/mL |
| CCN(CC)C(=O)[C@@H]1C=C2c3cccc4[nH]c(O)c(c34)C[C@H]2N(C)C1 [Compound M339] | 3.9 | 4.8 | 4.4 |  |
| CN1C[C@H](C(N)=O)C=C2c3cccc4[nH]c(Br)c(c34)C[C@H]21 [Compound M345] | 0.1 | 0.4 | 0.2 |  |
| CN1C[C@H](C(=O)O)C=C2c3cccc4[nH]c(Br)c(c34)C[C@H]21 [Compound M346] | 0.5 | 14.3 | 0.9 |  |
| CCNC(=O)[C@@H]1C=C2c3cccc4[nH]c(Br)c(c34)C[C@H]2NC1 [Compound M359] | 0.7 | 1.0 | 1.2 |  |
| CCNC(=O)[C@@H]1C=C2c3cccc4[nH]c(Br)c(c34)C[C@H]2N(C)C1 [Compound M373] | 7.7 | 10.3 | 19.6 |  |
| CCN(CC)C(=O)[C@@H]1C=C2c3cccc4[nH]c(Br)c(c34)C[C@H]2NC1 [Compound M387] | 2.5 | 3.0 | 3.0 |  |
